Source: paper PMC4873967, “ISPD produces CDP-ribitol used by FKTN and FKRP to transfer ribitol phosphate onto α-dystroglycan” (Nature Communications, 2016)

Columns and labels:
Format in all cases: biochemical
ISPD (mouse Ispd) = target: T1, ISPD (mouse Ispd) (Mus musculus, UniProt Q5RJG7); assay: HPLC (strong anion exchange) of CDP-ribitol formed; details: 1 mM CTP
T1 construct: gene Crppa
T1 sequence (Q5RJG7 1-447): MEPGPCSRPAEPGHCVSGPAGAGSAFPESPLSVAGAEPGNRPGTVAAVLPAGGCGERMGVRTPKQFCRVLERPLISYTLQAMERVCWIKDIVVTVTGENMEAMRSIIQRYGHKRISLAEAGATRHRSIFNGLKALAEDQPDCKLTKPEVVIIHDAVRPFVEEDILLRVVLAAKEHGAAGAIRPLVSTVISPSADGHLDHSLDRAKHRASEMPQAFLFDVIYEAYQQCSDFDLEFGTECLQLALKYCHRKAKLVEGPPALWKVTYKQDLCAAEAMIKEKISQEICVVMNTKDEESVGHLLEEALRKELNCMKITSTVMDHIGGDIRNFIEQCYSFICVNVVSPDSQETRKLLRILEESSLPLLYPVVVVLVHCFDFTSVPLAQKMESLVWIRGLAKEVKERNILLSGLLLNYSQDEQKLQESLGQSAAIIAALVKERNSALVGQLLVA

[1] = target: T2, FKRP (fukutin-related protein) (Mus musculus, UniProt Q8CG64); assay: transfer of radiolabel to alpha-dystroglycan (scintillation counting; SDS-PAGE phosphorimaging); details: labelled compound; acceptor rabbit alpha-dystroglycan fragments; 2 mM MnCl2, pH 6.5, 30 °C, 16 h
T2 construct: full ORF from mouse thymus cDNA, C-terminal SFB tag (S-tag, two FLAG, SBP), HEK293 lysate, streptavidin beads
T2 sequence (Q8CG64 1-494): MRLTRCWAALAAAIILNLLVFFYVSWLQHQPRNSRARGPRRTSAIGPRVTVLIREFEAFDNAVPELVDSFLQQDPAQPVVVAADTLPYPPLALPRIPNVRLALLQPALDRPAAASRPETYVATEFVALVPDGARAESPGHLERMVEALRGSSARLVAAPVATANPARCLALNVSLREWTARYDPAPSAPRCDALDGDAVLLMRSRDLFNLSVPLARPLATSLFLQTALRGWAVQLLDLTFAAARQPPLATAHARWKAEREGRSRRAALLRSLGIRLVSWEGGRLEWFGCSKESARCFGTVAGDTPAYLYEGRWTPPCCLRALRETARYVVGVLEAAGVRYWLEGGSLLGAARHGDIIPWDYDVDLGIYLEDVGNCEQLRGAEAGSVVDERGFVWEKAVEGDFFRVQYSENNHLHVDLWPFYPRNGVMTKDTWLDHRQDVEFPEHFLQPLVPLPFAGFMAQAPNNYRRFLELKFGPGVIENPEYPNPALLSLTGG

FKTN (fukutin) = target: T3, FKTN (fukutin) (Mus musculus, UniProt Q8R507); assay: as above; details: labelled compound; acceptor rabbit alpha-dystroglycan fragments; 2 mM MnCl2, pH 6.5, 30 °C, 16 h
T3 construct: full ORF from mouse brown adipose tissue cDNA, C-terminal SFB tag (S-tag, two FLAG, SBP), HEK293 lysate, streptavidin beads
T3 sequence (Q8R507 1-461): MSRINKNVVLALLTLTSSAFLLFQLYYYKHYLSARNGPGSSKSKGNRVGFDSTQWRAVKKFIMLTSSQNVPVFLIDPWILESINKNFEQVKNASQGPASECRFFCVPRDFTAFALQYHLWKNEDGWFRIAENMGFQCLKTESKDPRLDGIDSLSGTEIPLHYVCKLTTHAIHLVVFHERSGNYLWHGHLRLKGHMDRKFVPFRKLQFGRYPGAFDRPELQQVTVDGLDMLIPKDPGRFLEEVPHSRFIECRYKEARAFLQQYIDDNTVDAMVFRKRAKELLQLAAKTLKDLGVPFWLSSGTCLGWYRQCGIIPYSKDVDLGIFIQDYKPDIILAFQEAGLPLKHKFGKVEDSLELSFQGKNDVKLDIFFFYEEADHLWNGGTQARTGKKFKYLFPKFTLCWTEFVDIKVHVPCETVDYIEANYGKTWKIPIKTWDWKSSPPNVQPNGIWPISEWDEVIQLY

## Nc1ccn([C@@H]2O[C@H](COP(=O)(O)OP(=O)(O)OP(=O)(O)O)[C@@H](O)[C@H]2O)c(=O)n1 [CTP]
ISPD (mouse Ispd); D-ribitol-5-P as co-substrate, 2 mM MgCl2, pH 7.8, 37 °C
  HPLC (strong anion exchange) of CDP-ribitol formed: Activity of ISPD on CTP and D-ribitol-5-P

## O=P(O)(O)OC[C@@H](O)[C@@H](O)[C@@H](O)CO [D-ribitol-5-P]
ISPD (mouse Ispd); 2 mM MgCl2, 20 mM KCl, 2 mM DTT, pH 7.8, 37 °C
  HPLC (strong anion exchange) of CDP-ribitol formed: we clearly observed a CDP-ribitol pyrophosphorylase activity (Fig. 1b)

## Nc1ccn([C@@H]2O[C@H](COP(=O)(O)OP(=O)(O)OC[C@@H](O)[C@@H](O)[C@@H](O)CO)[C@@H](O)[C@H]2O)c(=O)n1 [CDP-ribitol]
[1]
  transfer of radiolabel to alpha-dystroglycan (scintillation counting); SDS-PAGE p: both FKTN and FKRP were able to transfer ribitol phosphate from CDP-ribitol onto α-dystroglycan
FKTN (fukutin)
  transfer of radiolabel to alpha-dystroglycan (scintillation counting); SDS-PAGE p: both FKTN and FKRP were able to transfer ribitol phosphate from CDP-ribitol onto α-dystroglycan
